Read-outs that look alike come from different tables or passages of the source.
Tested on: HCV pseudoparticles (genotype 1a HCV E1 and E2 envelope, H77C isolate)
Assay: microbe, parasite or virus in culture
Format: cell-based
Conditions: Hepatitis C virus
[1] = Huh-7, 48 h, read-out: Activity (EC50 class), HCV pseudoparticle infection of Huh7 cells, luciferase 2 days after infection, EC50 expressed as class A/B
[2] = Huh-7, 48 h, HCV pseudoparticle infection of Huh7 cells, luciferase 2 days after infection, average of duplicates
[3] = Huh-7, read-out: Activity (EC50 class), HCV pseudoparticles (genotype 1a, H77C) in Huh7 cells, EC50 expressed as class A/B
[4] = Huh-7, 48 h, HCV pseudoparticles (genotype 1a, H77C) in Huh7 cells, average of duplicate, luciferase 2 days after infection
[5] = Huh-7, 48 h, read-out: Activity (EC50 class), HCV pseudoparticles, Huh7 cells, luciferase 2 days after infection, average of duplicates

COC(=O)[C@H](CCCNC(=O)C(N)=O)NC(=O)c1ccc(Nc2nc(NC3(c4ccc(Cl)cc4)CC3)nc(OCC(F)(F)F)n2)cc1 [Compound 1012, (S)-methyl 5-(2-amino-2-oxoacetamido)-2-(4-(4-(1-(4-chlorophenyl)cyclopropylamino)-6-(2,2,2-trifluoroethoxy)-1,3,5-triazin-2-ylamino)benzamido)pentanoate]
EC50 [1]: 0.01 to 10 nM

CC(C)(CNC(=O)C(=O)Nc1ccc(-c2ccc(C(F)(F)F)cc2)cc1)CNC(=O)c1ccc(Nc2nc(NC3(c4ccc(Cl)cc4)CC3)nc(OCC(F)(F)F)n2)cc1 [Compound 1594]
EC50 [2]: 0.05 nM | EC50 [1]: 0.01 to 10 nM

CC(C)(CNC(=O)C(=O)Nc1nc2ccccc2s1)CNC(=O)c1ccc(Nc2nc(NC3(c4ccc(Cl)cc4)CC3)nc(OCC(F)(F)F)n2)cc1 [Compound 3376]
EC50 [3]: 0.01 to 10 nM

COC(=O)[C@H](CCNC(=O)C(=O)Nc1ccc(F)cc1)NC(=O)c1ccc(Nc2nc(NC3(c4ccc(Cl)cc4)CC3)nc(OCC(F)(F)F)n2)cc1 [Compound 1230]
EC50 [1]: 0.01 to 10 nM

COC(=O)[C@H](CNC(=O)C(=O)NC1CCC(C(C)(C)C)CC1)NC(=O)c1ccc(Nc2nc(NC3(c4ccc(Cl)cc4)CC3)nc(OCC(F)(F)F)n2)cc1 (stereo partly drawn) [Compound 1062]
EC50 [1]: 0.01 to 10 nM

CC(C)(CNC(=O)C(N)=O)CNC(=O)c1ccc(Nc2nc(NC3(c4ccccc4)CC3)nc(OCC(F)(F)F)n2)cc1 [Compound 3244]
EC50 [4]: 0.07 nM | EC50 [3]: 0.01 to 10 nM

CC(C)(C)CC(=O)N[C@H]1CC[C@@H](CNC(=O)C(=O)NC[C@H](NC(=O)c2ccc(Nc3nc(NC4(c5ccc(Cl)cc5)CC4)nc(OCC(F)(F)F)n3)cc2)C(=O)O)CC1 [Compound 1469]
EC50 [2]: 2.3 nM | EC50 [1]: 0.01 to 10 nM

CC(C)(CNC(=O)C(=O)Nn1cccc1)CNC(=O)c1ccc(Nc2nc(NC3(c4ccc(Cl)cc4)CC3)nc(OCC(F)(F)F)n2)cc1 [Compound 3242]
EC50 [4]: 0.03 nM | EC50 [3]: 0.01 to 10 nM

CC(C)(CNC(=O)C(N)=O)CNC(=O)c1ccc(Nc2nc(NC3(c4ccccc4F)CC3)nc(OCC(F)(F)F)n2)cc1 [Compound 3243]
EC50 [3]: 0.01 to 10 nM

COC(=O)/C(CCNC(=O)C(=O)Nc1cccc(S(=O)(=O)C2CCCCC2)c1)=N\C(=O)c1ccc(Nc2nc(NC3(c4ccc(Cl)cc4)CC3)nc(OCC(F)(F)F)n2)cc1 [Compound 3595]
EC50 [3]: 0.01 to 10 nM

COC(=O)[C@H](CCNC(=O)C(=O)NCc1cccc(F)c1F)NC(=O)c1ccc(Nc2nc(NC3(c4ccc(Cl)cc4)CC3)nc(OCC(F)(F)F)n2)cc1 [Compound 1160]
EC50 [1]: 0.01 to 10 nM

CCOC(=O)[C@H](CCNC(=O)C(N)=O)NC(=O)c1ccc(Nc2nc(NC3(c4ccc(Cl)cc4)CC3)nc(OCC(F)(F)F)n2)cc1 [Compound 1028, (S)-ethyl 4-(2-amino-2-oxoacetamido)-2-(4-(4-(1-(4-chlorophenyl)cyclopropylamino)-6-(2,2,2-trifluoroethoxy)-1,3,5-triazin-2-ylamino)benzamido)butanoate]
EC50 [2]: 0.4 nM | EC50 [1]: 0.01 to 10 nM

CC(C)(CNC(=O)C(=O)Nc1ccc(F)c(F)c1F)CNC(=O)c1ccc(Nc2nc(NC3(c4ccc(Cl)cc4)CC3)nc(OCC(F)(F)F)n2)cc1 [Compound 3262]
EC50 [3]: 0.01 to 10 nM

COc1cc(OC)nc(-c2ccc(NC(=O)C(=O)NCC(C)(C)CNC(=O)c3ccc(Nc4nc(NC5(c6ccc(Cl)cc6)CC5)nc(OCC(F)(F)F)n4)cc3)cc2)n1 [Compound 1596]
EC50 [1]: 0.01 to 10 nM

COC(=O)[C@H](CNC(=O)C(=O)Nc1ccc(OC)nc1)NC(=O)c1ccc(Nc2nc(NC3(c4ccc(Cl)cc4)CC3)nc(OCC(F)(F)F)n2)cc1 [Compound 1242]
EC50 [2]: 0.32 nM | EC50 [1]: 0.01 to 10 nM

COc1cccc(NC(=O)C(=O)NCC(C)(C)CNC(=O)c2ccc(Nc3nc(NC4(c5ccc(Cl)cc5)CC4)nc(OCC(F)(F)F)n3)cc2)c1 [Compound 3008]
EC50 [3]: 0.01 to 10 nM

CC(C)(C)c1ccc(NC(=O)C(=O)NCC[C@H](NC(=O)c2ccc(Nc3nc(NC4(c5ccc(Cl)cc5)CC4)nc(OCC(F)(F)F)n3)cc2)C(=O)O)cc1 [Compound 3549]
EC50 [3]: 0.01 to 10 nM

COC1CCCCC1CNC(=O)C(=O)NCC[C@H](NC(=O)c1ccc(Nc2nc(NC3(c4ccc(Cl)cc4)CC3)nc(OCC(F)(F)F)n2)cc1)C(=O)O (stereo partly drawn) [Compound 1182]
EC50 [1]: 0.01 to 10 nM

O=C(NCC[C@H](NC(=O)c1ccc(Nc2nc(NC3(c4ccc(Cl)cc4)CC3)nc(OCC(F)(F)F)n2)cc1)C(=O)O)C(=O)Nc1ccc(C2=CCC(N3CCOCC3)=N2)cc1 [Compound 3539]
EC50 [3]: 10 to 1000 nM

CCc1ccc(NC(=O)C(=O)NCC[C@H](NC(=O)c2ccc(Nc3nc(NC4(c5ccc(Cl)cc5)CC4)nc(OCC(F)(F)F)n3)cc2)C(=O)O)cc1 [Compound 3551]
EC50 [3]: 0.01 to 10 nM

O=C(NC[C@H]1CCC[C@H]1NC(=O)c1ccc(Nc2nc(NC3(c4ccc(Cl)cc4)CC3)nc(OCC(F)(F)F)n2)cc1)C(=O)Nc1ccc(F)cc1 [Compound 1474]
EC50 [1]: 0.01 to 10 nM

COC(=O)[C@H](CCNC(=O)C(=O)Nc1ccc(-c2cnco2)cc1)NC(=O)c1ccc(Nc2nc(NC3(c4ccc(Cl)cc4)CC3)nc(OCC(F)(F)F)n2)cc1 [Compound 3122]
EC50 [3]: 0.01 to 10 nM

O=C(NCC[C@H](NC(=O)c1ccc(Nc2nc(NC3(c4ccc(Cl)cc4)CC3)nc(OCC(F)(F)F)n2)cc1)C(=O)O)C(=O)NCC1CCCCCC1 [Compound 1207]
EC50 [1]: 0.01 to 10 nM

CC(C)(CNC(=O)C(=O)Nc1cccc(Cl)c1)CNC(=O)c1ccc(Nc2nc(NC3(c4ccc(Cl)cc4)CC3)nc(OCC(F)(F)F)n2)cc1 [Compound 1561]
EC50 [1]: 0.01 to 10 nM

Cc1ccc(NC(=O)C(=O)NCC(C)(C)CNC(=O)c2ccc(Nc3nc(NC4(c5ccc(Cl)cc5)CC4)nc(OCC(F)(F)F)n3)cc2F)cc1 [Compound 3554]
EC50 [4]: 0.029 nM | EC50 [3]: 0.01 to 10 nM

O=C(NCCCN(CCO)C(=O)C(=O)N1CCCCC1)c1ccc(Nc2nc(NC3(c4ccc(Cl)cc4)CC3)nc(OCC(F)(F)F)n2)cc1 [Compound 3509]
EC50 [3]: 0.01 to 10 nM

COC(=O)[C@H](CCNC(=O)C(=O)NC(C)(C)Cc1ccc(F)cc1)NC(=O)c1ccc(Nc2nc(NC3(c4ccc(Cl)cc4)CC3)nc(OCC(F)(F)F)n2)cc1 [Compound 1319]
EC50 [1]: 0.01 to 10 nM

COc1cc(NC(=O)C(=O)NCC[C@H](NC(=O)c2ccc(Nc3nc(NC4(c5ccc(Cl)cc5)CC4)nc(OCC(F)(F)F)n3)cc2)C(=O)O)ccc1-c1ccccc1 [Compound 1519]
EC50 [1]: 0.01 to 10 nM

O=C(NCC[C@H](NC(=O)c1ccc(Nc2nc(NC3(c4ccc(Cl)cc4)CC3)nc(OCC(F)(F)F)n2)cc1)C(=O)O)C(=O)Nc1ccc(Cc2ccncc2)cc1 [Compound 3224]
EC50 [3]: 0.01 to 10 nM

O=C(NCC[C@H](NC(=O)c1ccc(Nc2nc(NC3(c4ccc(Cl)cc4)CC3)nc(OCC(F)(F)F)n2)cc1)C(=O)O)C(=O)NCC1CCCCC1 [Compound 1181]
EC50 [1]: 0.01 to 10 nM

COC(=O)[C@H](CNC(=O)C(=O)Nc1ccc(-c2csc(C)n2)cc1)NC(=O)c1ccc(Nc2nc(NC3(c4ccc(Cl)cc4)CC3)nc(OCC(F)(F)F)n2)cc1 [Compound 3190]
EC50 [3]: 0.01 to 10 nM

O=C(Nc1cccc(F)c1)C(=O)N(CCO)CCCNC(=O)c1ccc(Nc2nc(NC3(c4ccc(Cl)cc4)CC3)nc(OCC(F)(F)F)n2)cc1 [Compound 3497]
EC50 [3]: 0.01 to 10 nM

NC(=O)NCc1ccc(NC(=O)C(=O)NC[C@H](NC(=O)c2ccc(Nc3nc(NC4(c5ccc(Cl)cc5)CC4)nc(OCC(F)(F)F)n3)cc2)C(=O)O)cc1 [Compound 3281]
EC50 [4]: 1.29 nM | EC50 [3]: 0.01 to 10 nM

CCC(CC)CNC(=O)C(=O)NC[C@H](NC(=O)c1ccc(Nc2nc(NC3(c4ccc(Cl)cc4)CC3)nc(OCC(F)(F)F)n2)cc1)C(=O)OC [Compound 1454]
EC50 [1]: 0.01 to 10 nM

O=C(NC[C@H](NC(=O)c1ccc(Nc2nc(NC3(c4ccc(Cl)cc4)CC3)nc(OCC(F)(F)F)n2)cc1)C(=O)O)C(=O)Nc1ccc(N2CCOCC2)nc1 [Compound 3759]
EC50 [5]: 0.01 to 10 nM

O=C(NCC[C@H](NC(=O)c1ccc(Nc2nc(NC3(c4ccc(Cl)cc4)CC3)nc(OCC(F)(F)F)n2)cc1)C(=O)O)C(=O)Nc1ccc(C(O)N2CCOCC2)cc1 (stereo partly drawn) [Compound 3229]
EC50 [3]: 10 to 1000 nM

COC(=O)[C@H](CNC(=O)C(=O)NCC1CCCOC1)NC(=O)c1ccc(Nc2nc(NC3(c4ccc(Cl)cc4)CC3)nc(OCC(F)(F)F)n2)cc1 (stereo partly drawn) [Compound 1458]
EC50 [2]: 3.2 nM | EC50 [1]: 0.01 to 10 nM

Cc1nccc(-c2cccc(NC(=O)C(=O)NC[C@H](NC(=O)c3ccc(Nc4nc(NC5(c6ccc(Cl)cc6)CC5)nc(OCC(F)(F)F)n4)cc3)C(=O)O)c2)n1 [Compound 3756]
EC50 [5]: 0.01 to 10 nM

COC(=O)[C@H](CNC(=O)C(=O)Nc1ccc(S(N)(=O)=O)cc1)NC(=O)c1ccc(Nc2nc(NC3(c4ccc(Cl)cc4)CC3)nc(OCC(F)(F)F)n2)cc1 [Compound 3087]
EC50 [3]: 0.01 to 10 nM

CCOCC1(CNC(=O)C(=O)NCC[C@H](NC(=O)c2ccc(Nc3nc(NC4(c5ccc(Cl)cc5)CC4)nc(OCC(F)(F)F)n3)cc2)C(=O)O)CC1 [Compound 1422]
EC50 [1]: 0.01 to 10 nM

CC(C)(CNC(=O)C(=O)NCc1ccccc1F)CNC(=O)c1ccc(Nc2nc(NC3(c4ccc(Cl)cc4)CC3)nc(OCC(F)(F)F)n2)cc1 [Compound 3005]
EC50 [3]: 0.01 to 10 nM

COc1cccc(CNC(=O)C(=O)NCC(C)(C)CNC(=O)c2ccc(Nc3nc(NC4(c5ccc(Cl)cc5)CC4)nc(OCC(F)(F)F)n3)cc2)c1 [Compound 3012]
EC50 [3]: 0.01 to 10 nM

NC(=O)c1cccc(NC(=O)C(=O)NC[C@H](NC(=O)c2ccc(Nc3nc(NC4(c5ccc(Cl)cc5)CC4)nc(OCC(F)(F)F)n3)cc2)C(=O)Cl)c1 [Compound 3745]
EC50 [5]: 0.01 to 10 nM

O=C(NCC[C@H](NC(=O)c1ccc(Nc2nc(NC3(c4ccc(Cl)cc4)CC3)nc(OCC(F)(F)F)n2)cc1)C(=O)O)C(=O)NCc1cccc(F)c1F [Compound 1177]
EC50 [1]: 0.01 to 10 nM

Cc1ccc(NC(=O)C(=O)NCC(C)(O)CNC(=O)c2ccc(Nc3nc(NC4(c5ccc(Cl)cc5)CC4)nc(OCC(F)(F)F)n3)cc2)cc1 (stereo not drawn) [Compound 3832]
EC50 [5]: 0.01 to 10 nM
